Assay results from patent publication US20260034120A1, “TREATING CANCER WITH LONG-ACTING TOPOISOMERASE I INHIBITOR” (priority 2022, published 2026).

What was measured:
[1] = cited from earlier work; for t½: humans, PLX038 prodrug and SN-38 released from it
22Rv1 ATM KO xenografts = experiment: PLX038A, TLZ and combination in 22Rv1 ATM KO xenografts; assay type: in vivo
MX-1 xenografts = experiment: PLX038A, TLZ and combination in MX-1 xenografts; assay type: in vivo, mice; conditions: PLX038A 15 μmol/kg, TLZ 0.4 μmol/kg/day
Excerpt: When tumors reached 170 mm^3, mice received a single intraperitoneal dose of vehicle, a single intraperitoneal dose of PLX038A (15 μmol/kg), a daily oral dose of talazoparib (0.4 μmol/kg) or a combination of PLX038A (15 μmol/kg) and daily oral TLZ (0.4 μmol/kg) starting on either day 0 (same day as PLX038A dosing) or day 4.

[2] = tested on: metastatic breast cancer with pathogenic germline ATM mutation; experiment: PLX038 and rucaparib in a patient with ATM deficient breast cancer (NCT04209595); assay type: in vivo, human; conditions: single-agent low-dose PLX038 after rucaparib suspension at 4 months
Experimental: A patient with metastatic breast cancer and germline ATM mutation was enrolled in the ongoing dose escalation phase of the trial. […] The patient was initially diagnosed with locally advanced invasive ductal carcinoma and was treated with neoadjuvant chemotherapy followed by surgery and radiation. Nine years later, they developed metastatic disease expressing estrogen and progesterone receptors, and was treated with multiple anti-endocrine therapies and chemotherapies including eribulin, abraxane, and carboplatin. […] At enrolment, they had skin lesions on the breast which were painful and pruritic and in addition had involvement of the lung and bones. […] The mutation results from a C to T substitution at nucleotide position 5908 and creates a premature translational stop signal which is expected to result in an absence or disrupted ATM protein. The variant was not present in population databases such as ExaC but has been reported in the literature in individuals with ataxia-telangiectasia and recognized as a founder mutation in the Costa Rican population.

Compound | half-life ([1]; SN-38 formed from CPT-11) [h] | t½ [1] | T/C3 wk (22Rv1 ATM KO xenografts; PLX038A 1.9 μmol/kg, TLZ 0.2 μmol/kg/day) | T/C3 wk (22Rv1 ATM KO xenografts; PLX038A 1.95 μmol/kg, TLZ 0.3 μmol/kg/day) | T/C3 wk (22Rv1 ATM KO xenografts; PLX038A 3.75 μmol/kg, TLZ 0.2 μmol/kg/day) | T/C3 wk (22Rv1 ATM KO xenografts; PLX038A 3.75 μmol/kg, TLZ 0.3 μmol/kg/day) | T/C3 wk (22Rv1 ATM KO xenografts; PLX038A 7.5 μmol/kg, TLZ 0.4 μmol/kg/day) | inhibition of tumor growth (22Rv1 ATM KO xenografts; TLZ QD PO 0.2 μmol/kg) | inhibition of tumor growth (22Rv1 ATM KO xenografts; TLZ QD PO 0.4 μmol/kg) | T/C3 wk (MX-1 xenografts) | duration of sustained suppression of the tumor after treatment initiation [2] [months]
CCc1c2c(nc3ccc(O)cc13)-c1cc3c(c(=O)n1C2)COC(=O)[C@]3(O)CC [SN-38] | ~12 | about 5 days | – | – | – | – | – | – | – | – | –
Cn1ncnc1[C@H]1c2n[nH]c(=O)c3cc(F)cc(c23)N[C@@H]1c1ccc(F)cc1 [TLZ, talazoparib] | – | – | 0.76 | 0.69 | 0.76 | 0.69 | 0.72 | insignificantly inhibitory | modestly inhibitory | 0.21 | –
O-[7-(tetra-polyethylene glycol ether)-carboxamido-1-cyano-2-heptyl]-N-(10′-methoxy-7′-ethyl-camptothecin)-N-[4′-(diethylcarbamoyl)phenyl)]carbamate [PLX038] | – | about 5 days | – | – | – | – | – | – | – | – | 12
